From patent US4559323A, “A41030 Antibiotics” (Eli Lilly and Company, priority 1984, dated 1985)
In brackets after ≈: the same amount, converted by molar mass.

Tests used:
Salmonella typhi = test: Agar-dilution MIC; format: cell-based; conditions: Table 17, 24 hours
Streptococcus pyogenes = test: Agar-dilution MIC; format: cell-based
From the text: The agar-dilution procedure described by the International Collaborative study (ICS) group was used to determine the minimum inhibitory concentrations (MIC's).

[1] = test system: Bacteroides melaninogenicus; test: Agar-dilution MIC (anaerobes); format: cell-based; conditions: Table 14; Bacteroides melaninogenicus 2736
Bacteroides vulgatis [2] = test: Agar-dilution MIC (anaerobes); format: cell-based; conditions: Table 14; Bacteroides vulgatis 1211
Pc. constellatus = test: Agar-dilution MIC (anaerobes); format: cell-based, Peptococcus constellatus; conditions: Table 15; Pc. constellatus 1468
Method: The MIC values were determined by the agar-dilution method, and are recorded in Table 15, which follows.

Clostridium septicum = test: Agar-dilution MIC (anaerobes); format: cell-based; conditions: Table 14; Clostridium septicum 1128
Solubility in solvents = format: physicochemical; conditions: solvents as named
From the text: The seven antibiotic factors are recovered from the fermentation and are obtained as a mixture, the A41030 complex. It will be recognized that the ratio of the factors in the A41030 complex will vary, depending upon the fermentation conditions used. The individual factors […], and G are separated and isolated as individual compounds, as hereinafter described.

Bacteroides corrodens [3] = test: Agar-dilution MIC (anaerobes); format: cell-based; conditions: Table 12; 24-hour; B. corrodens 1874
From the text: (§1) The A41030 antibiotics, factors A, B, and C, are active against a genus of anaerobic bacteria identified as Bacteroides sp., the 24-hour MIC values being determined by the agar-dilution method, and are set forth in Table 12, which follows.

Bacteroides vulgatis [4] = test: Agar-dilution MIC (anaerobes); format: cell-based; conditions: Table 12; 24-hour; B. vulgatis 1563
From the text: as §1

Peptococcus prevoti = test: Agar-dilution MIC (anaerobes); format: cell-based
Fusobacterium symbiosum = test: Agar-dilution MIC (anaerobes); format: cell-based; conditions: Table 14; Fusobacterium symbiosum 1470
Bacteroides corrodens [5] = test: Agar-dilution MIC (anaerobes); format: cell-based; conditions: Table 14; Bacteroides corrodens 1874
[6] = Electrometric titration (pKa); format: physicochemical; conditions: electrometric titration in 66% dimethylformamide in water
[7] = test system: Peptostreptococcus intermedius; test: Agar-dilution MIC (anaerobes); format: cell-based
S. pyogenes = test: Experimental bacterial infection in mice, subcutaneous ED50; format: in vivo; conditions: two doses subcutaneously
Method: (§2) All of the A41030 factors tested have shown in vivo antimicrobial activity against experimental bacterial infections. When two doses of test compound were administered subcutaneously to mice in illustrative infections, the activity observed is measured as an ED50 value [effective dose in mg./kg. to protect fifty percent of the test animals: See Warren Wick, et al., J. Bacteriol. 81, 233-235 (1961)].

S. pneumoniae = test: as above; format: in vivo; conditions: two doses subcutaneously
Method: as §2

Staph. aureus = test: as above; format: in vivo; conditions: two doses subcutaneously
Method: as §2

Hemophilus influenzae = test: Agar-dilution MIC; format: cell-based

## NC1C(=O)NC2Cc3ccc(c(Cl)c3)Oc3cc4cc(c3O)Oc3ccc(cc3Cl)C(O)C3NC(=O)C(NC(=O)C4NC(=O)C(NC2=O)c2cc(O)cc(c2)Oc2cc1ccc2O)c1cc(Cl)c(O)c(c1)-c1c(O)cc(O)cc1C(C(=O)O)NC3=O (centres unmarked) [A41030 factor A]
Salmonella typhi; Salmonella typhi 1335
  MIC: > 128 µg/mL
Salmonella typhi; Salmonella typhi X514
  MIC: > 128 µg/mL
Streptococcus pyogenes; Table 11, S. pyogenes 9943
  MIC: 0.25 µg/mL (≈ 0.203 µM)
Streptococcus pyogenes; Table 11, S. pyogenes 10389
  MIC: 0.25 µg/mL (≈ 0.203 µM)
Streptococcus pyogenes; Table 11, S. pyogenes 12344
  MIC: 0.5 µg/mL (≈ 0.405 µM)
Streptococcus pyogenes; Table 11, S. pyogenes C203
  MIC: 0.25 µg/mL (≈ 0.203 µM)
Streptococcus pyogenes; Table 11, S. pyogenes M-6517
  MIC: 0.25 µg/mL (≈ 0.203 µM)
Streptococcus pyogenes; Table 17, 24 hours, Streptococcus pyogenes C203
  MIC: 0.5 µg/mL (≈ 0.405 µM)
Streptococcus pyogenes; Table 18, 24 hours, Streptococcus pyogenes C203
  MIC: 0.25 µg/mL (≈ 0.203 µM)
[1]
  MIC: 4 µg/mL (≈ 3.24 µM)
Bacteroides vulgatis [2]
  MIC: 32 µg/mL (≈ 25.9 µM)
Pc. constellatus
  MIC: 0.5 µg/mL (≈ 0.405 µM)
Clostridium septicum
  MIC: 2 µg/mL (≈ 1.62 µM)
Solubility in solvents
  Solubility: soluble in alcohol-water mixtures, in dimethylsulfoxide, in dimethylformamide, in dimethylsulfoxide-water mixtures, in dimethylformamide-water mixtures, in dilute aqueous acid, and in dilute aqueous base
Bacteroides corrodens [3]
  MIC: 32 µg/mL (≈ 25.9 µM)
Bacteroides vulgatis [4]
  MIC: 32 µg/mL (≈ 25.9 µM)
Peptococcus prevoti; Table 14, Peptococcus prevoti 1281
  MIC: ≤ 0.25 µg/mL
Peptococcus prevoti; Table 15, Pc. prevoti 1281
  MIC: 0.5 µg/mL (≈ 0.405 µM)
Peptococcus prevoti; Table 15, Pc. prevoti 1293
  MIC: 1.0 µg/mL (≈ 0.811 µM)
Peptococcus prevoti; Table 15, Pc. prevoti 1407
  MIC: 1.0 µg/mL (≈ 0.811 µM)
Fusobacterium symbiosum
  MIC: 1.0 µg/mL (≈ 0.811 µM)
Bacteroides corrodens [5]
  MIC: 64 µg/mL (≈ 51.9 µM)
[6]
  pKa, first titratable group: about 5.53
  pKa, second titratable group: ~7.60
  pKa, third titratable group: ~10.37
[7]; Table 14, Peptostreptococcus intermedius 1264
  MIC: 1.0 µg/mL (≈ 0.811 µM)
[7]; Table 15, Ps. intermedius 1264
  MIC: ≤ 0.03 µg/mL
[7]; Table 15, Ps. intermedius 1524
  MIC: 0.5 µg/mL (≈ 0.405 µM)
[7]; Table 15, Ps. intermedius 1624
  MIC: 1.0 µg/mL (≈ 0.811 µM)
S. pyogenes
  ED50: 2.8 mg/kg
S. pneumoniae
  ED50: 1.68 mg/kg
Staph. aureus
  ED50: 1.4 mg/kg
Hemophilus influenzae; Table 9, strain 75-312
  MIC: 8 µg/mL (≈ 6.49 µM)
Hemophilus influenzae; Table 9, strain 75-313
  MIC: 16 µg/mL (≈ 13 µM)
Hemophilus influenzae; Table 9, strain 75-364
  MIC: 16 µg/mL (≈ 13 µM)
Hemophilus influenzae; Table 9, strain 75-465
  MIC: 32 µg/mL (≈ 25.9 µM)
Hemophilus influenzae; Table 9, strain 75-19300
  MIC: 16 µg/mL (≈ 13 µM)
Hemophilus influenzae; Table 9, strain 75-90383
  MIC: 16 µg/mL (≈ 13 µM)
Hemophilus influenzae; Table 9, strain 4842
  MIC: 8 µg/mL (≈ 6.49 µM)
Hemophilus influenzae; Table 9, strain A. Hall
  MIC: 16 µg/mL (≈ 13 µM)
Hemophilus influenzae; Table 9, strain Bruno
  MIC: 16 µg/mL (≈ 13 µM)
Hemophilus influenzae; Table 9, strain G. Newton
  MIC: 32 µg/mL (≈ 25.9 µM)
Hemophilus influenzae; Table 9, strain Howard
  MIC: 16 µg/mL (≈ 13 µM)
Hemophilus influenzae; Table 9, strain Miller
  MIC: 16 µg/mL (≈ 13 µM)
Hemophilus influenzae; Table 9, strain O. Steele
  MIC: 16 µg/mL (≈ 13 µM)
Hemophilus influenzae; Table 9, strain P. Wylie
  MIC: 16 µg/mL (≈ 13 µM)
Hemophilus influenzae; Table 9, strain R251
  MIC: 16 µg/mL (≈ 13 µM)
Hemophilus influenzae; Table 9, strain R259
  MIC: 16 µg/mL (≈ 13 µM)
Hemophilus influenzae; Table 9, strain R272
  MIC: 16 µg/mL (≈ 13 µM)
Hemophilus influenzae; Table 9, strain R274
  MIC: 16 µg/mL (≈ 13 µM)
Hemophilus influenzae; Table 9, strain S. Ford
  MIC: 16 µg/mL (≈ 13 µM)
Hemophilus influenzae; Table 17, 24 hours, Haemophilus influenzae 251
  MIC: 2 µg/mL (≈ 1.62 µM)
Hemophilus influenzae; Table 17, 24 hours, Haemophilus influenzae Brun
  MIC: 8 µg/mL (≈ 6.49 µM)
